Test results taken from ChEMBL document CHEMBL5465560, “Selectivity Literature for EUbOPEN Chemogenomic Library” (2024).
One block for each compound: values may come before it.

Key:
[1] = biological target: T1, Inhibitor of nuclear factor kappa-B kinase subunit beta (Homo sapiens) (UniProt O14920); test: Selectivity interaction (ActivX KiNativ screen (kinase selectivity in THP-1 cell lysates)) EUB0000639a IKBKB; type: subcellular; settings: lysate, at 0.2 µM
T1 sequence (whole entry): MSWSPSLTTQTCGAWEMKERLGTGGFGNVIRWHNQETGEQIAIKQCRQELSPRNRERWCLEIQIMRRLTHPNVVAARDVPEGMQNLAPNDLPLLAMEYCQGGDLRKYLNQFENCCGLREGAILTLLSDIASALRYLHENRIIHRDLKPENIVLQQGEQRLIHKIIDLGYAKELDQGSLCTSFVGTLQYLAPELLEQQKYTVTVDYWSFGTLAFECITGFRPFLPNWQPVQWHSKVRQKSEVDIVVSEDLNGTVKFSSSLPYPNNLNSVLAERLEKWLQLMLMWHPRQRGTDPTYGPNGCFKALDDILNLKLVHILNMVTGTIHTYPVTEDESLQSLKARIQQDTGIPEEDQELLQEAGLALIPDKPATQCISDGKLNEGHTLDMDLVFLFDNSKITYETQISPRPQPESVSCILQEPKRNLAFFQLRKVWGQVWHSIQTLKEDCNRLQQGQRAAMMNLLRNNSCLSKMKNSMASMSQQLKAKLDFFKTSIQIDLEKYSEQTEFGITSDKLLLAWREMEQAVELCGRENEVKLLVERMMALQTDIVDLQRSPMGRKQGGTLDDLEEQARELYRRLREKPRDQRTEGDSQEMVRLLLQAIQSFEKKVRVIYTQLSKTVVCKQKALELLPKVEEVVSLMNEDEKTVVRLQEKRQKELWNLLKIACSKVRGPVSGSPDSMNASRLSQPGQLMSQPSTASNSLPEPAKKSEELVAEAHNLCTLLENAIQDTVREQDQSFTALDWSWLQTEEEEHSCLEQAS

[2] = biological target: Dual specificity mitogen-activated protein kinase kinase 2 (Homo sapiens) (UniProt P36507); test: Selectivity interaction (ActivX KiNativ screen (kinase selectivity in THP-1 cell lysates)) EUB0000639a MAP2K2; type: subcellular; settings: lysate, at 5 µM
[3] = biological target: T2, Serine/threonine-protein kinase LATS1 (Homo sapiens) (UniProt O95835); settings: at 10 µM
T2 sequence (whole entry): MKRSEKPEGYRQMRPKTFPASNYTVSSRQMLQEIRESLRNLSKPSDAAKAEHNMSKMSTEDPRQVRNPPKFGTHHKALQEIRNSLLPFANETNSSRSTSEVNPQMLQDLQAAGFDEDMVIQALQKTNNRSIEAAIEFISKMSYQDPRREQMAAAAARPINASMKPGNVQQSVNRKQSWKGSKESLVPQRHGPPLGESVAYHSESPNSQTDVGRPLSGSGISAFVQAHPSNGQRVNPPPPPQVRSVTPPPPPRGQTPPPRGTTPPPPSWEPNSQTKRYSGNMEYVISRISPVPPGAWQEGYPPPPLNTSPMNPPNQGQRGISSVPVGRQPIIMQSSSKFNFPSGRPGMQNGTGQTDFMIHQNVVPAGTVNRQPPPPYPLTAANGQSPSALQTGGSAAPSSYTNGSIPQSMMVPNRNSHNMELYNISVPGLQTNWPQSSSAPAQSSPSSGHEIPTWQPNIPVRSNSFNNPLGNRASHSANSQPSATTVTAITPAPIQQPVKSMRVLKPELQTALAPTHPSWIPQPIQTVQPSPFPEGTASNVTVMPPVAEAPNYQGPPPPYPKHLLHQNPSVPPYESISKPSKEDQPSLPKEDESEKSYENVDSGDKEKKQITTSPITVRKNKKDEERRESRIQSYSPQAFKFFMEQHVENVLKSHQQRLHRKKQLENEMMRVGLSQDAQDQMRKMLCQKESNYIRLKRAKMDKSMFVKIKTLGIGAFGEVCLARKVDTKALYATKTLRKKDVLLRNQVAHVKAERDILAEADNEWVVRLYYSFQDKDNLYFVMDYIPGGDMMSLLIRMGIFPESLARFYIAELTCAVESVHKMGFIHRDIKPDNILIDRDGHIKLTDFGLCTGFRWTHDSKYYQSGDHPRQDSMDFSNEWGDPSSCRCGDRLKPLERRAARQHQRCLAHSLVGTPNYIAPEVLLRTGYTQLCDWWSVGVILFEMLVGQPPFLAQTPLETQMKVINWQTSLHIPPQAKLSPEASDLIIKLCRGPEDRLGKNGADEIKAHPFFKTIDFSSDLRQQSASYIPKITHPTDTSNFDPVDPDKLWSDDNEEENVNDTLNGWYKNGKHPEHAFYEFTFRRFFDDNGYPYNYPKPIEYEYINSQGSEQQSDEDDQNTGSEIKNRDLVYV

[4] = biological target: G protein-coupled receptor kinase 5 (Homo sapiens, UniProt P34947); test: Selectivity interaction (ProQinase) EUB0000171b GRK5
[5] = biological target: 5'-AMP-activated protein kinase catalytic subunit alpha-1 (Homo sapiens, UniProt Q13131); test: Selectivity interaction (KinomeScan (DiscoverX)) EUB0000045b PRKAA1
[6] = biological target: T3, Mitogen-activated protein kinase 15 (Homo sapiens) (UniProt Q8TD08); test: Selectivity interaction (KinomeScan (DiscoverX)) EUB0000618a MAPK15; settings: at 10 µM
T3 sequence (whole entry): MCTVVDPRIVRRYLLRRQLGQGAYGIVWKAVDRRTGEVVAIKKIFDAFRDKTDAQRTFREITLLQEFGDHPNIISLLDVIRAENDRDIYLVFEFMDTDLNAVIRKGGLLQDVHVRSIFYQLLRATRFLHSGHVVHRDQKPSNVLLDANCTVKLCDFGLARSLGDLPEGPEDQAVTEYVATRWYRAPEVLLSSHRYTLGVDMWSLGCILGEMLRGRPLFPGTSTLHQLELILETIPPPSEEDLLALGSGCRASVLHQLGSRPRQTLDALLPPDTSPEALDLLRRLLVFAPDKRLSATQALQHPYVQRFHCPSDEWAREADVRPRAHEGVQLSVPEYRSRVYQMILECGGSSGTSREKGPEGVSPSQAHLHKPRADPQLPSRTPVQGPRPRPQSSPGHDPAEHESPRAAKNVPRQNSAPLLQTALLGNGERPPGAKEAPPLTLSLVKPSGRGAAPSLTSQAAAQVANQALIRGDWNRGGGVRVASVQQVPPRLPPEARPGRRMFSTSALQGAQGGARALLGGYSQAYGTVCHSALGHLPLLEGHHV

5'-AMP-activated protein kinase catalytic subunit alpha-1, sequence (Q13131 whole entry, looked up): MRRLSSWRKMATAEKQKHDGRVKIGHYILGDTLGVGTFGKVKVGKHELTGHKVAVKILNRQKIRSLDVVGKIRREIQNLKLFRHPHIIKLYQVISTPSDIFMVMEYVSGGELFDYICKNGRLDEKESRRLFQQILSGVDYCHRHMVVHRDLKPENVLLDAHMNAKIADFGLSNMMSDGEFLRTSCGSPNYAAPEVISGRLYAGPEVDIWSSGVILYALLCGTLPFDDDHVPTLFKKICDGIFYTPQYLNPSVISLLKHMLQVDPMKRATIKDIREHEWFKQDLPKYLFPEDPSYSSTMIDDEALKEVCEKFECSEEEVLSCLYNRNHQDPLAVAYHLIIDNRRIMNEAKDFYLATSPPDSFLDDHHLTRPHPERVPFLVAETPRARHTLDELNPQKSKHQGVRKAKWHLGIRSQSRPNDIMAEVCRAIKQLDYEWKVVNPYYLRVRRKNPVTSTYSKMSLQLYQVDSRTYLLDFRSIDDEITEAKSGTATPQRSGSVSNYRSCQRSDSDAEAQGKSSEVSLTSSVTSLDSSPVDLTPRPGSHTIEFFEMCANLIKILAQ
G protein-coupled receptor kinase 5, sequence (P34947 whole entry, looked up): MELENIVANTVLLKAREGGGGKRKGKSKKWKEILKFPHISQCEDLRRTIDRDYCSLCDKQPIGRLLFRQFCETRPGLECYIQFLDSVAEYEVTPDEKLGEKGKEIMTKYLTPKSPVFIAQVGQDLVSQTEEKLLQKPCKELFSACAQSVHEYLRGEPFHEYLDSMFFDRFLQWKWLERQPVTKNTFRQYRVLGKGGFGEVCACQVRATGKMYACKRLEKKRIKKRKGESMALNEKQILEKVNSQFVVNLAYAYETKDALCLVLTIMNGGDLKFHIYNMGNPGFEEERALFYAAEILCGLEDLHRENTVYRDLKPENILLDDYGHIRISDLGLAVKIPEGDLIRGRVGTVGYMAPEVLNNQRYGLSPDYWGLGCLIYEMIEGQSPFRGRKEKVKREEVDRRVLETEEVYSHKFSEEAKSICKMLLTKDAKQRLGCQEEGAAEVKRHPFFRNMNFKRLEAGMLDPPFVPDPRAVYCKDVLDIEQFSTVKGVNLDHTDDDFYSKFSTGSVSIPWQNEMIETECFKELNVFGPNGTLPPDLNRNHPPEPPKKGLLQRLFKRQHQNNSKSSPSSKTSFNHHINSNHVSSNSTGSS
Dual specificity mitogen-activated protein kinase kinase 2 (Homo sapiens), sequence (P36507 whole entry): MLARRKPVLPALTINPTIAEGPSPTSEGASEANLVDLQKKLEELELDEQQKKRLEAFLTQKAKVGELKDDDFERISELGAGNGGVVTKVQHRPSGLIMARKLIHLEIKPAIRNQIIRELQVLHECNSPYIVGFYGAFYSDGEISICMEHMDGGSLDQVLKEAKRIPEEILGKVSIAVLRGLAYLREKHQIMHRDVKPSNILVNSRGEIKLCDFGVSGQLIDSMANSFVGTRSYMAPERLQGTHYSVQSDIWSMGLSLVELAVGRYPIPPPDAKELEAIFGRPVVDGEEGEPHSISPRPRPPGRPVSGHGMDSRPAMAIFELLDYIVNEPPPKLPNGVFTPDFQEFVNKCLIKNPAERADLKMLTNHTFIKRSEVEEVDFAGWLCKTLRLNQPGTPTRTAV

- % of inhibition [1]: -2.2%
- % of inhibition [2]: -10.6%
Compound: CC[C@@H]1[C@H](F)C(=O)N[C@@H]1COc1nccc2cc(C(N)=O)c(OC)cc12 [ZIMLOVISERTIB]

- % of control ([4]; at 1 µM): 97%
- % of control ([4]; at 5 µM): 94%
Compound: C=CC(=O)Nc1cccc(C(=O)Nc2ccc(Nc3cc(-c4[nH]c(SC)nc4C)ccn3)cc2)c1

The next lines start with the compound.

Compound: CCN(CC)CCCCNc1ncc2cc(-c3cc(OC)cc(OC)c3)c(NC(=O)NC(C)(C)C)nc2n1
- % of control [3]: 100%

Compound: C=CC(=O)Nc1cc(-n2c(=O)ccc3cnc4ccc(-c5ccc(NS(C)(=O)=O)cc5)cc4c32)ccc1C
- % of control ([5]; at 1 µM): 100%
- % of control ([5]; at 10 µM): 100%

Compound: O[C@H]1CC[C@H](Nc2ncc3nc(Nc4c(F)cc(F)cc4F)n([C@H]4CCOC4)c3n2)CC1
- % of control [6]: 100%
